Measurements from US9265253B2, “Use of macrocyclic picolinamides as fungicides” (DOW AGROSCIENCES LLC, priority 2013, dated 2016).
Read-outs that look alike come from different tables or passages of the source.

What was measured:
[1] = tested on: Mycosphaerella graminicola; Anamorph: Septoria tritici; experiment: Leaf Blotch of Wheat (SEPTTR) disease control; assay type: in vivo; conditions: Zymoseptoria tritici; for pest or weed control at 100 ppm: rate 100 ppm; for pest or weed control at 121.5 g/ha: rate 121.5 g/H
Experimental: (§1) Technical grades of materials were dissolved in acetone, which were then mixed with nine volumes of water containing 110 ppm Triton X-100. The fungicide solutions were applied onto wheat seedlings using an automated booth sprayer to run-off. All sprayed plants were allowed to air dry prior to further handling. All fungicides were evaluated using the aforementioned method for their activity vs. all target diseases. Wheat leaf blotch and brown rust activity were also evaluated using track spray applications, in which case the fungicides were formulated as EC formulations, containing 0.1% Trycol 5941 in the spray solutions. Wheat plants (variety Yuma) were grown from seed in a greenhouse in 50% mineral soil/50% soil-less Metro mix until the first leaf was fully emerged, with 7-10 seedlings per pot. These plants were inoculated with an aqueous spore suspension of Septoria tritici either prior to or after fungicide treatments. After inoculation the plants were kept in 100% relative humidity (one day in a dark dew chamber followed by two to three days in a lighted dew chamber at 20° C.) to permit spores to germinate and infect the leaf. The plants were then transferred to a greenhouse set at 20° C. for disease to develop. When disease symptoms were fully expressed on the 1st leaves of untreated plants, infection levels were assessed on a scale of 0 to 100 percent disease severity. Percent disease control was calculated using the ratio of disease severity on treated plants relative to untreated plants.

[2] = tested on: Puccinia triticina; Synonym: Puccinia recondite f. Sp. Tritici; experiment: Wheat Brown Rust (PUCCRT) disease control; assay type: in vivo; conditions: Puccinia triticina, topical
Experimental: as §1, with “plants. Wheat plants (variety Yuma) were grown from seed in a greenhouse in 50% mineral soil/50% soil-less Metro mix until the first leaf was fully emerged, with 7-10 seedlings per pot. These plants were inoculated with an aqueous spore suspension of Puccinia triticina either prior to or after fungicide treatments. After inoculation the plants were kept in a dark dew room at 22° C. with 100% relative humidity overnight to permit spores to germinate and infect the leaf. The plants were then transferred to a greenhouse set at 24° C. for disease to develop. Fungicide formulation, application and disease assessment followed the procedures as described in the Example A.” for “plants.”

[3] = 24 h, 1 Day Protectant, read-out: SEPTTR 1 DP disease control
[4] = 72 h, 3 Day Curative, read-out: SEPTTR 3 DC disease control
[5] = 24 h, 1 Day Protectant, rate 100 ppm, read-out: PUCCRT 1 DP disease control
[6] = 72 h, 3 Day Curative, rate 100 ppm, read-out: PUCCRT 3 DC disease control
[7] = 24 h, 1 Day Protectant, rate 121.5 g/H, read-out: PUCCRT 1 DP disease control
[8] = 72 h, 3 Day Curative, rate 121.5 g/H, read-out: PUCCRT 3 DC disease control

Compound | pest or weed control at 100 ppm [1, 3] [%] | pest or weed control at 100 ppm [1, 4] [%] | pest or weed control at 100 ppm [2, 5] [%] | pest or weed control at 100 ppm [2, 6] [%] | pest or weed control at 121.5 g/ha [1, 3] [%] | pest or weed control at 121.5 g/ha [1, 4] [%] | pest or weed control at 121.5 g/ha [2, 7] [%] | pest or weed control at 121.5 g/ha [2, 8] [%] | pest or weed control at 100 ppm ([2]; 24 h, Wheat Brown Rust, 1 Day Protectant, rate 100 ppm (high volume application), read-out: Disease control PUCCRT 1 DP) [%] | pest or weed control at 121.5 g/ha ([2]; 24 h, Wheat Brown Rust, 1 Day Protectant, rate 121.5 g/H (low volume application), read-out: Disease control PUCCRT 1 DP) [%] | pest or weed control at 100 ppm ([2]; 72 h, Wheat Brown Rust, 3 Day Curative, rate 100 ppm (high volume application), read-out: Disease control PUCCRT 3 DC) [%] | pest or weed control at 121.5 g/ha ([2]; 72 h, Wheat Brown Rust, 3 Day Curative, rate 121.5 g/H (low volume application), read-out: Disease control PUCCRT 3 DC) [%]
COc1ccnc(C(=O)N[C@H]2CCC[C@H](Cc3ccc(C)cc3)[C@@H](OCC3CC3)[C@H](C)OC2=O)c1O [Compound F42] | 80 to 100 | 80 to 100 | 80 to 100 | 80 to 100 |  |  |  |  |  |  |  | 
COc1ccnc(C(=O)N[C@H]2CCC[C@H](CCC(C)C)[C@@H](OCCCC(F)(F)F)[C@H](C)OC2=O)c1O [Compound F5] | 80 to 100 | 80 to 100 | 80 to 100 | 0 to 80 |  |  |  |  |  |  |  | 
CCOCC(=O)OCOc1c(OC)ccnc1C(=O)N[C@H]1CCC[C@H](CC2CCCC2)[C@@H](OCC2CC2)[C@H](C)OC1=O [Compound F178] | 80 to 100 | 80 to 100 | 80 to 100 | 80 to 100 | 80 to 100 | 80 to 100 | 80 to 100 | 0 to 80 |  |  |  | 
COc1ccnc(C(=O)N[C@H]2CCC[C@H](CCC(C)C)[C@@H](Oc3ccccc3)[C@H](C)OC2=O)c1O [Compound F1] | 80 to 100 | 80 to 100 | 80 to 100 | 0 to 80 |  |  |  |  |  |  |  | 
CCOCC(=O)OCOc1c(OC)ccnc1C(=O)N[C@H]1CCC[C@H](Cc2ccc(F)cc2)[C@@H](OC(=O)C2CCCC2)[C@H](C)OC1=O [Compound F170] | 80 to 100 | 80 to 100 | 80 to 100 | 80 to 100 | 80 to 100 | 80 to 100 | 80 to 100 | 0 to 80 |  |  |  | 
COc1ccnc(C(=O)N[C@H]2CCC[C@H](Cc3ccc(F)cc3)[C@@H](Oc3ccccc3)[C@H](C)OC2=O)c1OCOC(C)=O [Compound F99] | 80 to 100 | 80 to 100 | 80 to 100 | 80 to 100 | 80 to 100 | 80 to 100 | 80 to 100 | 0 to 80 |  |  |  | 
COc1ccnc(C(=O)N[C@H]2CCC[C@H](Cc3ccccc3)[C@@H](OC3CCCC3)[C@H](C)OC2=O)c1O [Compound F22] | 80 to 100 | 80 to 100 | 80 to 100 | 80 to 100 |  |  |  |  |  |  |  | 
COc1ccnc(C(=O)N[C@H]2CCC[C@H](Cc3ccc(F)cc3)[C@@H](OCC(C)C)[C@H](C)OC2=O)c1O [Compound F14] | 80 to 100 | 80 to 100 | 80 to 100 | 80 to 100 |  |  |  |  |  |  |  | 
COc1ccnc(C(=O)N[C@H]2CCC[C@H](CC3CCCCC3)[C@@H](OCC3CC3)[C@H](C)OC2=O)c1OCOC(C)=O [Compound F97] | 80 to 100 | 80 to 100 | 80 to 100 | 80 to 100 | 80 to 100 | 80 to 100 | 80 to 100 | 80 to 100 |  |  |  | 
COc1ccnc(C(=O)N[C@H]2CCC[C@H](Cc3ccc(F)cc3)[C@@H](OC(=O)C3CCCC3)[C@H](C)OC2=O)c1O [Compound F16] | 80 to 100 | 0 to 80 | 80 to 100 | 0 to 80 |  |  |  |  |  |  |  | 
CCCO[C@@H]1[C@@H](CC2CCCC2)CCC[C@H](NC(=O)c2nccc(OC)c2O)C(=O)O[C@H]1C [Compound F36] | 80 to 100 |  | 80 to 100 |  |  |  |  |  |  |  |  | 
COc1ccnc(C(=O)N[C@H]2CCC[C@H](CCF)[C@@H](OCC(C)C)[C@H](C)OC2=O)c1O [Compound F43] | 80 to 100 | 80 to 100 | 80 to 100 | 80 to 100 |  |  |  |  |  |  |  | 
COc1ccnc(C(=O)N[C@H]2CCC[C@H](CCOc3ccccc3)[C@@H](Oc3ccccc3)[C@H](C)OC2=O)c1O [Compound F44] | 80 to 100 | 80 to 100 | 80 to 100 | 80 to 100 |  |  |  |  |  |  |  | 
COc1ccnc(C(=O)N[C@H]2CCC[C@H](CCC(C)C)[C@@H](OCC(C)C)[C@H](C)OC2=O)c1O [Compound F2] | 80 to 100 | 80 to 100 | 80 to 100 | 0 to 80 |  |  |  |  |  |  |  | 
COc1ccc(C[C@H]2CCC[C@H](NC(=O)c3nccc(OC)c3O)C(=O)O[C@@H](C)[C@@H]2OCC(C)C)cc1 [Compound F32] | 80 to 100 | 80 to 100 | 80 to 100 | 0 to 80 |  |  |  |  |  |  |  | 
COc1ccnc(C(=O)N[C@H]2CCC[C@H](Cc3ccc(F)cc3)[C@@H](OCC(F)F)[C@H](C)OC2=O)c1OCOC(C)=O [Compound F103] | 80 to 100 | 80 to 100 | 80 to 100 | 80 to 100 | 80 to 100 | 80 to 100 | 80 to 100 | 80 to 100 |  |  |  | 
COc1ccnc(C(=O)N[C@H]2CCC[C@H](CC3CCCC3)[C@@H](Oc3ccccc3)[C@H](C)OC2=O)c1OCOC(C)=O [Compound F115] | 80 to 100 | 80 to 100 | 80 to 100 | 80 to 100 | 80 to 100 | 80 to 100 | 80 to 100 | 0 to 80 |  |  |  | 
CCOCC(=O)OCOc1c(OC)ccnc1C(=O)N[C@H]1CCC[C@@H]2CCO[C@H]2[C@H](C)OC1=O [Compound F192] |  |  |  |  |  |  |  |  | 80 to 100 | 80 to 100 | 80 to 100 | 80 to 100
CCCO[C@@H]1[C@@H](CCC(C)C)CCC[C@H](NC(=O)c2nccc(OC)c2O)C(=O)O[C@H]1C [Compound F4] | 80 to 100 | 80 to 100 | 80 to 100 | 80 to 100 |  |  |  |  |  |  |  | 
COc1ccc(C[C@H]2CCC[C@H](NC(=O)c3nccc(OC)c3OCOC(C)=O)C(=O)O[C@@H](C)[C@@H]2OCC2CC2)cc1 [Compound F116] | 80 to 100 | 80 to 100 | 80 to 100 | 80 to 100 | 80 to 100 | 80 to 100 | 80 to 100 | 80 to 100 |  |  |  | 
COc1ccnc(C(=O)N[C@H]2CCC[C@H](Cc3ccco3)[C@@H](OCC(C)C)[C@H](C)OC2=O)c1OCOC(C)=O [Compound F120] |  |  |  |  | 80 to 100 | 0 to 80 | 80 to 100 |  |  |  |  | 
COc1ccnc(C(=O)N[C@H]2CCC[C@@H]3CCO[C@H]3[C@H](C)OC2=O)c1O [Compound F58] |  |  | 80 to 100 | 80 to 100 |  |  |  |  |  |  |  | 
